Converted amounts (≈) assume the structure as drawn. Structures can show the parent of a compound that is named as a salt.
Key:
Newcastle disease virus [1] = experiment: Antiviral activity against Newcastle disease virus infected in chick embryo fibroblasts assessed as suppression of virus multiplication to 1% by measuring hemagglutinating activity by tube assay method; type: functional; conditions: avian paramyxovirus 1
[2] = Cytotoxicity against chick embryo fibroblasts after 24 hrs by microscopic analysis; type: cell-based, Gallus gallus, Fibroblast; conditions: chicken
Newcastle disease virus [3] = experiment: Ratio of amantadine hydrochloride MIC to compound MIC for Newcastle disease virus infected in chick embryo fibroblasts; type: functional, avian paramyxovirus 1

O=P(O)(O[C@H]1C[C@H]2C[C@H]1[C@@H]1CCC[C@H]21)O[C@H]1C[C@H]2C[C@H]1[C@@H]1CCC[C@H]21
MIC (Newcastle disease virus [1]): 550 µM (≈ 202 µg/mL)
MCC at 24 h [2]: 550 µM
Ratio (Newcastle disease virus [3]): 2

O=P(O[C@H]1C[C@H]2C[C@H]1[C@@H]1CCC[C@H]21)(O[C@H]1C[C@H]2C[C@H]1[C@@H]1CCC[C@H]21)O[C@H]1C[C@H]2C[C@H]1[C@@H]1CCC[C@H]21
MIC (Newcastle disease virus [1]): 1000 µM (≈ 501 µg/mL)
MCC at 24 h [2]: 400 µM

NC12CC3CC(CC(C3)C1)C2 [AMANTADINE HYDROCHLORIDE]
MIC (Newcastle disease virus [1]): 1300 µM
MCC at 24 h [2]: 1300 µM

Reference: ChEMBL document CHEMBL3272246, “Biological active polycycloalkanes. 4. Phosphoric esters of trimethylenenorbornyl alcohols” (J Med Chem, 1977)
